In paper PMC3189179, “Rapid Development of New Protein Biosensors Utilizing Peptides Obtained via Phage Display” (PLoS ONE, 2011):

Tests used:
ALT (human liver) [1] = target: T1, ALT (human liver) (Homo sapiens, UniProt P24298); assay: Biopanning of phage-displayed peptide library over immobilized ALT; format: binding; settings: 12 phage clones after fifth round of biopanning against ALT
T1 construct: ALT (human liver) and lactate dehydrogenase (LDH) were obtained from Lee Biosolutions, Inc; purchased Lee Biosolutions, Inc. (St. Louis, Missouri); host or cells: human liver
T1 sequence (P24298 2-496 limits assumed): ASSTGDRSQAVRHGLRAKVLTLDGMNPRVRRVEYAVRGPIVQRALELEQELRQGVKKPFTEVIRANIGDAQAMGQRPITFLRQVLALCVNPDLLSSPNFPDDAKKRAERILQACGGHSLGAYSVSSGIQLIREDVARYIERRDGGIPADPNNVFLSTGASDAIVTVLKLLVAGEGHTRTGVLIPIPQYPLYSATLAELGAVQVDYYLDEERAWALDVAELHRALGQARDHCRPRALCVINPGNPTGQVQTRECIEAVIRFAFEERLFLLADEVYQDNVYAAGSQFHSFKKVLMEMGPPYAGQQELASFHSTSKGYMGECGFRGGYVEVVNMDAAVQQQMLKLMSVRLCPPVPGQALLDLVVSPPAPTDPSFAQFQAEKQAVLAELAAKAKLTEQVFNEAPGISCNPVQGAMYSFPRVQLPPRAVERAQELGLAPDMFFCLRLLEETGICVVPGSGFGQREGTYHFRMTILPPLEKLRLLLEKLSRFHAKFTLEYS
Procedure: ALT (2.6 µg/mL) was dissolved in NaHCO3 buffer (100 mM, pH 8.3) and transferred to the wells of polystyrene microplates. After overnight incubation with mild agitation at 4°C, the well surfaces were coated with ALT. The well surfaces were then blocked with blocking buffer (0.1 M NaHCO3 containing 2% BSA and 0.02% of NaN3) for 1 hr at 4°C, and washed 6 times with TBST (50 mM Tris-HCl pH 7.5, 150 mM NaCl, 0.1% Tween 20) to remove weakly bound ALT. […] Wells were washed 10 times with TBST to remove unbound phage. The bound phage were eluted with 100 µL of 0.2 M glycine-HCl (pH 2.2) and the elution was immediately neutralized with 15 µL Tris-HCl (1 M, pH 9.1) to prevent phage killing. The eluted phage were amplified in E. coli ER2738 and the phage were harvested by precipitation with NaCl/polyethylene glycol (20% (w/v) polyethylene glycol-8000 with 2.5 M NaCl). This biopanning process was repeated for five rounds. The concentration of Tween 20 in the washing step was increased from 0.1% in the first round of panning to 0.3% in the second round of panning and 0.5% in the final three rounds of panning. After each round of panning, the phage were titered using Luria-Bertani (LB) broth plates containing isopropyl β-D-thiogalactopyranoside (IPTG) and X-gal. After the fifth round of selection, twelve blue monocolonies were randomly picked and amplified for DNA sequencing.

ALT (human liver) [2] = target: T1, ALT (human liver); assay: ELISA for phage clone binding to immobilized ALT; settings: 10^5 to 10^11 pfu, triplicate, 405 nm, 1 hr room temperature
Procedure: To test whether or not the selected phage clones from the biopanning procedure could bind to ALT, ELISA assays were performed. Microplates were coated with ALT (2.6 µg/mL) overnight at 4°C, blocked with blocking buffer, and washed 6 times with TBST solution (containing 0.1% Tween 20). Varying amounts of amplified phage clones were added to each well and incubated for 1 hr at room temperature. After washing, HRP-conjugated anti-M13 monoclonal antibody (diluted 1∶5000 in blocking buffer) was added and incubated at room temperature for 1 hr. Following incubation and washing again with the same buffer, ABTS and H2O2 (30%, v/v) were added and the absorbance was measured after a 1 hr incubation with mild agitation at 405 nm with a microplate spectrophotometer (Molecular Devices, Sunnyvale, CA).
In order to estimate the apparent dissociation constant for the ALT5-8 clone, further ELISA experiments were performed with extended phage concentrations. The data were fit to a Langmuir isotherm using non-linear regression (SigmaPlot, San Jose, CA) and the Kd,app was determined.

ALT (human liver) [3] = target: T1, ALT (human liver); assay: Coupled enzyme assay (ALT/LDH, NADH depletion): peptide inhibition of ALT, bi-bi ping-pong fit with competitive inhibitor; format: biochemical
Procedure: ALT enzyme kinetics were measured to determine the impact of the ALT5-8 peptide on the activity of the enzyme. Kinetic experiments were performed in a coupled assay where the pyruvate generated by ALT was reduced to lactate by LDH with the concomitant oxidation of NADH. The depletion of NADH was monitored by following its absorbance at 340 nm in UV-transparent microplates. […] The reactions were initiated by the addition of 330 U/L ALT and all measurements were made in triplicate. All stock solutions were prepared in 100 mM Tris-HCl buffer (pH 7.8), and all kinetic trials were conducted 300 µL at 37 °C. […] Free ALT5-8 peptide inhibitor (I) was added to the reactions at concentrations from 0–0.25 µM.

ALT (human liver) [4] = target: T1, ALT (human liver); assay: EIS detection of ALT with peptide-modified gold electrode; format: binding; settings: biosensor made from the peptide coupled with EIS detection
Procedure: All electrochemical measurements were performed with a µAUTOLAB potentiostat (Type III, FRA2, Metrohm Autolab, Netherlands). A gold wire (dia. 1 mm) sealed in epoxy was used as a working electrode and a platinum mesh was used as a counter electrode. All potentials measured are reported versus a Ag/AgCl reference electrode. Both cyclic voltammetry and EIS measurements were conducted in a solution of 1 mM ferro/ferricyanide in 0.1 M sodium perchlorate.
CV and EIS were performed as previously described. Briefly, the gold electrodes were prepared in 0.1 mM peptide solution for 1 hr, followed by backfilling in 1 mM cysteine solution for 2 hr to obtain a Au-Pep-Cys electrode. The Au-Pep-Cys electrodes were incubated in ALT solution for 1 hr before CV and EIS measurements. After each electrode preparation step, the electrode is removed and placed into solutions of 1 mM ferro/ferricyanide in 0.1 M NaClO4for analysis. Therefore, all the electrochemical measurements were conducted in the ferro/ferricyanide solution which eliminates the effect of any potential viscosity differences between the sample solutions. CV experiments were performed at a potential scan rate of 100 mV/s. Impedance spectra were recorded over a frequency range of 0.1–10^5 Hz. […] The impedance was recorded and a Nyquist plot was obtained. […]

ALT (human liver) [5] = target: T1, ALT (human liver); assay: QCM binding of ALT to immobilized peptide; settings: ALT as compared to BSA and SA, 10 µg/mL each
Source text: All reagents used were analytical grade or higher unless otherwise stated. Escherichia coli strain ER2738, a host for M13 phage, and a polyvalent M13 phage display kit (Ph.D.-12) which contained random 12-mer peptides were obtained from New England Biolabs (Ipswich, MA). ALT (human liver) and lactate dehydrogenase (LDH) were obtained from Lee Biosolutions, Inc. (St. Louis, Missouri). Horseradish peroxidase (HRP) conjugated anti-M13 monoclonal antibody was from GE Healthcare (Piscataway, NJ). Tween 20, 2,2′-Azino-bis(3-ethylbenzothiazoline-6-sulfonic acid) diammonium salt (ABTS), streptavidin (SA) from Streptomyces avidinii, bovine serum albumin (BSA), L-cysteine hydrochloride (98%) and all other chemicals were purchased from Sigma-Aldrich (St. Louis, MO). Polystyrene microplates were from Pierce Biotechnology (Rockford, IL). The ALT5-8 peptide modified with a C-terminal cysteine (sequence: […]) was synthesized (>90% purity) by Genscript (Piscataway, NJ). Quartz crystals (AT-cut, 5 MHz) with Au deposited on both sides were obtained from Inficon (East Syracuse, New York). Buffer solutions (pH = 7.3) containing 0.01 M sodium phosphate and 0.1 M NaCl were used to make all protein (1–10 µg/mL) and peptide (0.1 mM) solutions for the QCM and EIS measurements. All solutions were prepared using Milli-Q water. […]

ALT (human liver) [6] = target: T1, ALT (human liver); assay: Uninhibited ALT enzyme kinetics (coupled ALT/LDH assay); format: biochemical; settings: absence of peptide, pH 7.8, 37 °C, triplicate, bi-bi ping-pong fit (Eqn. 1)
Procedure: ALT enzyme kinetics were measured to determine the impact of the ALT5-8 peptide on the activity of the enzyme. Kinetic experiments were performed in a coupled assay where the pyruvate generated by ALT was reduced to lactate by LDH with the concomitant oxidation of NADH. The depletion of NADH was monitored by following its absorbance at 340 nm in UV-transparent microplates. […] Initial concentrations of pyridoxal 5′-phosphate, NADH, and LDH were 0.1 mM, 0.25 mM and 47 U/L respectively. The reactions were initiated by the addition of 330 U/L ALT and all measurements were made in triplicate. All stock solutions were prepared in 100 mM Tris-HCl buffer (pH 7.8), and all kinetic trials were conducted 300 µL at 37 °C.

alanine aminotransferase [7] = target: T2, alanine aminotransferase (Homo sapiens, UniProt P24298); assay: phage ELISA
T2 chain: T1 sequence (P24298 2-496 limits assumed)

alanine aminotransferase [8] = target: T2, alanine aminotransferase; assay: QCM
alanine aminotransferase [9] = target: T2, alanine aminotransferase; assay: enzyme inhibition kinetics
[10] = substrate: C[C@H](N)C(=O)O; assay: purified protein, by the assay type; settings: other: substrate of ALT, absence of peptide, pH 7.8, 37 °C, triplicate, bi-bi ping-pong fit (Eqn. 1)

With LETEWDSLWYAP [ALT5-9] the “Frequency of sequence among sequenced clones” value (from here on “Frequency”) (ALT (human liver) [1]) was 1/12 and the “affinity of phage clone for immobilized ALT (in words)” value (“affinity of phage clone” below) (ALT (human liver) [2]) was “low affinity for ALT similar to that of the M13 control phage”.

SNNLYPQRAVST [ALT4-3] was tested, and the “Frequency” value (ALT (human liver) [1]) was 1/12 and the “affinity of phage clone” value (ALT (human liver) [2]) was “low affinity for ALT similar to that of the M13 control phage”.

With “WHWRNPDFWYLK [ALT5-8, 12-mer peptide selected by M13 phage display over ALT; tested on phage and as free peptide]” the mode of inhibition (ALT (human liver) [3]; Lineweaver-Burk plots, with respect to alanine) was “competitive inhibitor”, the “residual enzyme activity with peptide (in words)” value (ALT (human liver) [3]; peptide to protein ratio 2∶1) was “the enzyme was still quite active” and the “limit of detection (LOD), EIS” value (ALT (human liver) [4]) was 0.092 µg/mL. The “Frequency” value (ALT (human liver) [1]) was 10/12, the “selectivity (in words)” value (ALT (human liver) [5]) was “selective for ALT as compared to BSA and SA” and the “affinity of phage clone” value (ALT (human liver) [2]) was “dose-dependent affinity for the ALT protein”.

Molecule α-ketoglutarate [reference compound] has a Km (ALT (human liver) [6]; substrate of ALT, read-out: Michaelis constant KM) of 90 ± 30 µM.

WHWRNPDFWYLK (displayed on M13 phage) [ALT5-8 peptide (phage-displayed)] showed a Kd (alanine aminotransferase [7]) of 85 nM.

Work on WHWRNPDFWYLKC (immobilized on gold via C-terminal cysteine) [ALT5-8 peptide (C-terminal Cys)] yielded a Kd (alanine aminotransferase [8]) of 20.1 nM.

In the case of WHWRNPDFWYLK [ALT5-8 peptide], the Ki (alanine aminotransferase [9]) is reported as 71 nM.

B1: ALT (human liver) (Homo sapiens) (protein)
chain: T1 sequence (P24298 2-496 limits assumed)
In the case of B1, the Km [10] is reported as 8000 ± 900 µM and the kcat (ALT (human liver) [6]) is reported as 5.8 ± 0.2 s⁻¹.
